Experimental findings from patent US9844536B2, “3-(1H-imidazo[4,5-C]pyridin-2-yl)-1H-pyrazolo[3,4-C]pyridine and therapeutic uses thereof” (Samumed, LLC, priority 2014, dated 2017) are described below.

A value given as a limit tells only on which side of the number the result lay.

Test [1] relates to Wnt pathway (Sp5-Luc reporter, SW480 cells). Briefly: Sp5-Luc reporter gene screening assay for Wnt activity in SW480 colon carcinoma cells. The test is classed as cell-based. The note with it: Homo sapiens. The essentials:
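IC50 values come from variable-slope four-parameter fits of luciferase signal normalized to DMSO wells. Stable Sp5-Luc reporter SW480 colon carcinoma cells were exposed to compounds in a 3-fold dilution series (source plates from 10 mM stock) for forty-two hours at 37 °C.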

For a further test, the system named is LL29 cells. The test can be described thus: Inhibition of the fibrotic process (αSMA staining) in TGF-β1 treated primary human fibroblasts from IPF patients. The note with it: Fibroblast, 96 h, TGF-β1 20 ng/mL, 4 days, dose-response 10 μM to 1.87 nM, read-out: Inhibition of fibrosis EC50. The test is classed as cell-based. From the text:
The above synthesized compounds were screened using primary human fibroblasts (derived from IPF patients) treated with TGF-β1 to determine their ability to inhibit the fibrotic process.
Primary human fibroblasts derived from IPF patients (LL29 cells) [^1Xiaoqiu Liu, et. al., “Fibrotic Lung Fibroblasts Show Blunted Inhibition by cAMP Due to Deficient cAMP Response Element-Binding Protein Phosphorylation”, Journal of Pharmacology and Experimental Therapeutics (2005), 315(2), 678-687; ^2Watts, K. L., et. al., “RhoA signaling modulates cyclin D1 expression in human lung fibroblasts; implications for idiopathic pulmonary fibrosis”, Respiratory Research (2006), 7(1), 88] were obtained from American Type Culture Collection (ATCC) and expanded in F12 medium supplemented with 15% Fetal Bovine Serum and Penicillin/Streptomycin.
Each compound was dissolved in DMSO as a 10 mM stock and used to prepare compound source plates. Serial dilution (1:2, 11-point dose-response curves from 10 μM to 1.87 nM) and compound transfer was performed using the ECHO 550 (Labcyte, Sunnyvale, Calif.) into 384-well clear bottom assay plates (Greiner Bio-One) with appropriate DMSO backfill for a final DMSO concentration of 0.1%. LL29 cells were plated at 1,500 cells/well in 80 μl/well F12 medium supplemented with 1% Fetal Bovine Serum. One hour after addition of the cells, TGF-β1 (Peprotech; 20 ng/mL) was added to the plates to induce fibrosis (ref. 1 and 2 above). Wells treated with TGF-β1 and containing DMSO were used as controls. Cells were incubated at 37° C. and 5% CO2 for 4 days. Following incubation for 4 days, SYTOX green nucleic acid stain (Life Technologies [Thermo Fisher Scientific]) was added to the wells at a final concentration of 1 uM and incubated at room temperature for 30 min. Cells were then fixed using 4% formaldehyde (Electron Microscopy Sciences), washed 3 times with PBS followed by blocking and permeabilization using 3% Bovine Serum Albumin (BSA; Sigma) and 0.3% Triton X-100 (Sigma) in PBS. Cells were then stained with antibody specific to α-smooth muscle actin (αSMA; Abcam) (ref. 1 and 2 above) in 3% Bovine Serum Albumin (BSA; Sigma) and 0.3% Triton X-100 (Sigma) in PBS, and incubated overnight at 4° C. Cells were then washed 3 times with PBS, followed by incubation with Alexa Flor-647 conjugated secondary antibody (Life Technologies [Thermo Fisher Scientific]) and DAPI at room temperature for 1 hour. Cells were then washed 3 times with PBS and plates were sealed for imaging. αSMA staining was imaged by excitation at 630 nm and emission at 665 nm and quantified using the Compartmental Analysis program on the CellInsight CX5 (Thermo Scientific). Dead or apoptotic cells were excluded from analysis based on positive SYTOX green staining. % of total cells positive for αSMA were counted in each well and normalized to the average of 11 wells treated with TGF-31 on the same plate using Dotmatics' Studies Software. The normalized averages (fold change over untreated) of 3 replicate wells for each compound concentration were used to create dose-responses curves and EC50 values were calculated using non-linear regression curve fit in the Dotmatics' Studies Software. The EC50 values are reported.

Take `CCCC(=O)Nc1cncc(-c2cc3c(-c4nc5c(-c6ccsc6)nccc5[nH]4)n[nH]c3cn2)c1` [Compound 277, N-(5-(3-(4-(Thiophen-3-yl)-1H-imidazo[4,5-c]pyridin-2-yl)-1H-pyrazolo[3,4-c]pyridin-5-yl)pyridin-3-yl)butyramide]: the IC50 (usually the point on the concentration scale where inhibition reaches its midpoint) in test [1] stood at 71.5 nM. The EC50 (usually the concentration giving half of the maximal effect) with LL29 cells is at most 9 nM.

For `O=C(Nc1cncc(-c2cc3c(-c4nc5c(-c6ccsc6)nccc5[nH]4)n[nH]c3cn2)c1)C1CCC1` [Compound 280, N-(5-(3-(4-(Thiophen-3-yl)-1H-imidazo[4,5-c]pyridin-2-yl)-1H-pyrazolo[3,4-c]pyridin-5-yl)pyridin-3-yl)cyclobutanecarboxamide], the IC50 in test [1] was 42.8 nM. Further, in the test on LL29 cells, the EC50 was at least 9990 nM.

For the molecule `c1ccc(CNCc2cncc(-c3cc4c(-c5nc6c(-c7ccsc7)nccc6[nH]5)n[nH]c4cn3)c2)cc1` [Compound 283, N-Benzyl-1-(5-(3-(4-(thiophen-3-yl)-1H-imidazo[4,5-c]pyridin-2-yl)-1H-pyrazolo[3,4-c]pyridin-5-yl)pyridin-3-yl)methanamine], half-maximal inhibition in test [1] (IC50) was put at 116 nM. Further, the EC50 with LL29 cells was at most 9 nM.

Molecule `CCNCc1cncc(-c2cc3c(-c4nc5c(-c6ccoc6)nccc5[nH]4)n[nH]c3cn2)c1` [Compound 292, N-((5-(3-(4-(Furan-3-yl)-1H-imidazo[4,5-c]pyridin-2-yl)-1H-pyrazolo[3,4-c]pyridin-5-yl)pyridin-3-yl)methyl)ethanamine] displayed an IC50 in test [1] of 80.4 nM. In the test on LL29 cells, the EC50 was at most 9 nM.

In the case of `CCCCC(=O)Nc1cncc(-c2cc3c(-c4nc5c(-c6ccoc6)nccc5[nH]4)n[nH]c3cn2)c1` [Compound 304, N-(5-(3-(4-(Furan-3-yl)-1H-imidazo[4,5-c]pyridin-2-yl)-1H-pyrazolo[3,4-c]pyridin-5-yl)pyridin-3-yl)pentanamide], in test [1], inhibition was half-maximal at 64 nM (IC50). For the same molecule, in the test with LL29 cells, the EC50 was at least 9990 nM.

In test [1], `c1cc2[nH]c(-c3n[nH]c4cnc(-c5cncc(CNCC6CCCC6)c5)cc34)nc2c(-c2ccoc2)n1` [Compound 310, 1-Cyclopentyl-N-((5-(3-(4-(furan-3-yl)-1H-imidazo[4,5-c]pyridin-2-yl)-1H-pyrazolo[3,4-c]pyridin-5-yl)pyridin-3-yl)methyl)methanamine] had an IC50 of 396 nM. The EC50 in the test on LL29 cells is over 10000 nM.

Turning to `CN(C)c1cncc(-c2cc3c(-c4nc5c(-c6cccs6)nccc5[nH]4)n[nH]c3cn2)c1` [Compound 319, N,N-Dimethyl-5-(3-(4-(thiophen-2-yl)-1H-imidazo[4,5-c]pyridin-2-yl)-1H-pyrazolo[3,4-c]pyridin-5-yl)pyridin-3-amine], half-maximal inhibition in test [1] (IC50) required 53.4 nM. Besides, the EC50 in the test on LL29 cells is at most 9 nM.

For `CN(C)Cc1cncc(-c2cc3c(-c4nc5c(-c6cccs6)nccc5[nH]4)n[nH]c3cn2)c1` [Compound 325, N,N-Dimethyl-1-(5-(3-(4-(thiophen-2-yl)-1H-imidazo[4,5-c]pyridin-2-yl)-1H-pyrazolo[3,4-c]pyridin-5-yl)pyridin-3-yl)methanamine], the IC50 in test [1] is over 10000 nM. For the same molecule, the EC50 in the test with LL29 cells is at most 9 nM.

In the case of `CCCC(=O)Nc1cncc(-c2cc3c(-c4nc5c(-c6cccs6)nccc5[nH]4)n[nH]c3cn2)c1` [Compound 329, N-(5-(3-(4-(Thiophen-2-yl)-1H-imidazo[4,5-c]pyridin-2-yl)-1H-pyrazolo[3,4-c]pyridin-5-yl)pyridin-3-yl)butyramide], inhibition in test [1] was half-maximal at 17.3 nM (IC50). In the test on LL29 cells, the EC50 was at least 9990 nM.

For the molecule `FC1(F)CCN(Cc2cncc(-c3cc4c(-c5nc6c(-c7cccs7)nccc6[nH]5)n[nH]c4cn3)c2)C1` [Compound 337, 5-(5-((3,3-Difluoropyrrolidin-1-yl)methyl)pyridin-3-yl)-3-(4-(thiophen-2-yl)-1H-imidazo[4,5-c]pyridin-2-yl)-1H-pyrazolo[3,4-c]pyridine], the IC50 in test [1] came to 15.2 nM. The EC50 in the test with LL29 cells is at most 9 nM.

Molecule `CC(C)CC(=O)Nc1cncc(-c2cc3c(-c4nc5c(-c6ccc(F)s6)nccc5[nH]4)n[nH]c3cn2)c1` [Compound 340, N-(5-(3-(4-(5-Fluorothiophen-2-yl)-1H-imidazo[4,5-c]pyridin-2-yl)-1H-pyrazolo[3,4-c]pyridin-5-yl)pyridin-3-yl)-3-methylbutanamide] displayed an IC50 in test [1] of 31.7 nM. For the same molecule, in the test on LL29 cells, the EC50 turned out to be 306 nM.

In test [1], `Fc1ccc(-c2nccc3[nH]c(-c4n[nH]c5cnc(-c6cncc(CN7CCCC7)c6)cc45)nc23)s1` [Compound 352, 3-(4-(5-Fluorothiophen-2-yl)-1H-imidazo[4,5-c]pyridin-2-yl)-5-(5-(pyrrolidin-1-ylmethyl)pyridin-3-yl)-1H-pyrazolo[3,4-c]pyridine] gave an IC50 of 100 nM. The EC50 with LL29 cells was at least 9990 nM.

Molecule `O=C(Nc1cncc(-c2cc3c(-c4nc5c(-c6ccc(F)s6)nccc5[nH]4)n[nH]c3cn2)c1)C1CCC1` [Compound 358, N-(5-(3-(4-(5-Fluorothiophen-2-yl)-1H-imidazo[4,5-c]pyridin-2-yl)-1H-pyrazolo[3,4-c]pyridin-5-yl)pyridin-3-yl)cyclobutanecarboxamide] yielded an IC50 in test [1] of 13.7 nM. In the test on LL29 cells, the EC50 was determined as 40 nM.

In test [1], `CCNCc1cncc(-c2cc3c(-c4nc5c(-c6ccc(C)s6)nccc5[nH]4)n[nH]c3cn2)c1` [Compound 370, N-((5-(3-(4-(5-Methylthiophen-2-yl)-1H-imidazo[4,5-c]pyridin-2-yl)-1H-pyrazolo[3,4-c]pyridin-5-yl)pyridin-3-yl)methyl)ethanamine] showed an IC50 of 39.1 nM. Moreover, the EC50 with LL29 cells is 578 nM.

`Cc1ccc(-c2nccc3[nH]c(-c4n[nH]c5cnc(-c6cncc(NC(=O)C(C)(C)C)c6)cc45)nc23)s1` [Compound 372, N-(5-(3-(4-(5-Methylthiophen-2-yl)-1H-imidazo[4,5-c]pyridin-2-yl)-1H-pyrazolo[3,4-c]pyridin-5-yl)pyridin-3-yl)pivalamide]: in test [1], the IC50 is 24.6 nM. The EC50 in the test with LL29 cells is 1080 nM.

In test [1], `Cc1ccc(-c2nccc3[nH]c(-c4n[nH]c5cnc(-c6cncc(NC(=O)C(C)C)c6)cc45)nc23)s1` [Compound 373, N-(5-(3-(4-(5-Methylthiophen-2-yl)-1H-imidazo[4,5-c]pyridin-2-yl)-1H-pyrazolo[3,4-c]pyridin-5-yl)pyridin-3-yl)isobutyramide] showed an IC50 of 9.9 nM. The EC50 with LL29 cells is at most 9 nM.

Take `Cc1ccc(-c2nccc3[nH]c(-c4n[nH]c5cnc(-c6cncc(CN7CCCCC7)c6)cc45)nc23)s1` [Compound 379, 3-(4-(5-Methylthiophen-2-yl)-1H-imidazo[4,5-c]pyridin-2-yl)-5-(5-(piperidin-1-ylmethyl)pyridin-3-yl)-1H-pyrazolo[3,4-c]pyridine]: the IC50 in test [1] was 73.2 nM. In addition, the EC50 in the test with LL29 cells was at most 9 nM.

`Cc1ccc(-c2nccc3[nH]c(-c4n[nH]c5cnc(-c6cncc(NC(=O)C7CCCC7)c6)cc45)nc23)s1` [Compound 385, N-(5-(3-(4-(5-Methylthiophen-2-yl)-1H-imidazo[4,5-c]pyridin-2-yl)-1H-pyrazolo[3,4-c]pyridin-5-yl)pyridin-3-yl)cyclopentanecarboxamide]: in test [1], inhibition was half-maximal at 166 nM (IC50). Moreover, the EC50 in the test on LL29 cells was at most 9 nM.

Take `CC(=O)c1ccc(-c2nccc3[nH]c(-c4n[nH]c5cnc(-c6cncc(NC(=O)Cc7ccccc7)c6)cc45)nc23)s1` [Compound 400, N-(5-(3-(4-(5-Acetylthiophen-2-yl)-1H-imidazo[4,5-c]pyridin-2-yl)-1H-pyrazolo[3,4-c]pyridin-5-yl)pyridin-3-yl)-2-phenylacetamide]: the IC50 in test [1] was over 10000 nM. In addition, in the test on LL29 cells, the EC50 was at most 9 nM.

As for `CC(=O)c1ccc(-c2nccc3[nH]c(-c4n[nH]c5cnc(-c6cncc(NC(=O)CC(C)(C)C)c6)cc45)nc23)s1` [Compound 406, N-(5-(3-(4-(5-Acetylthiophen-2-yl)-1H-imidazo[4,5-c]pyridin-2-yl)-1H-pyrazolo[3,4-c]pyridin-5-yl)pyridin-3-yl)-3,3-dimethylbutanamide], the IC50 in test [1] stood at 1920 nM. Besides, the EC50 in the test with LL29 cells was at least 9990 nM.
